Source: patent publication US20220372031A1, “NOVEL TRICYCLIC AROMATIC HETEROCYCLIC COMPOUND, PREPARATION METHOD THEREFOR, PHARMACEUTICAL COMPOSITION AND APPLICATION THEREOF” (SHANGHAI LONGWOOD BIOPHARMACEUTICALS CO., LTD., priority 2019, published 2022)

Biological target: T1, PD-1/PD-L1 (Homo sapiens, UniProt Q9NZQ7)
T1 construct: Recombinant human PD-L1 protein (19-238) with a His-tagged at the C-terminus; purchased AcroBiosystems PD1-H5229 (PD-L1); PD1-H5257 (PD-1)
Assay: PD-1/PD-L1 homogeneous time-resolved fluorescence (HTRF) binding assay
Conditions: PD-1/PD-L1 HTRF binding, ~3 nM PD1, 10 nM PD-L1, 25° C., PBS pH 7.4
Experimental: Assays were performed in standard black 384-well polystyrene plates and a final volume was 20 μL. The inhibitor was first serially diluted with DMSO and added to the wells of the plate, followed by the addition of other reaction components. The final concentration of DMSO in the assay was 1%. Assays were performed at 25° C. in PBS buffer (pH 7.4) containing 0.05% Tween-20 and 0.1% BSA. Recombinant human PD-L1 protein (19-238) with a His-tagged at the C-terminus was purchased from AcroBiosystems (PD1-H5229). Recombinant human PD-1 protein (25-167) with an Fc tag at the C-terminus was also purchased from AcroBiosystems (PD1-H5257). The PD-L1 and PD-1 proteins were diluted in assay buffer and then […] of the solution was extracted and added to the wells of the plate. Plates were centrifuged and proteins and inhibitors were preincubated for 40 minutes. After incubation, 0.1 μl of HTRF detection buffer containing europium […] labeled anti-human IgG (PerkinElmer-AD0212), Fc-specific and anti-His SureLight®-Allophycocyanin (APC, PerkinElmer-AD0059H) conjugated antibodies was added. After centrifugation, the plates were incubated at 25° C. for 60 minutes. Data was read in a PHERAstar FS plate reader (665 nm/620 nm ratio). Final concentrations in the assay were ˜3 nM PD1, 10 nM PD-L1, 1 nM europium anti-human IgG, and 20 nM anti-His-allophycocyanin. Activity data were fitted using GraphPad Prism 5_0 software to derive IC50 values for inhibitors.

T1 sequence (Q9NZQ7 19-238): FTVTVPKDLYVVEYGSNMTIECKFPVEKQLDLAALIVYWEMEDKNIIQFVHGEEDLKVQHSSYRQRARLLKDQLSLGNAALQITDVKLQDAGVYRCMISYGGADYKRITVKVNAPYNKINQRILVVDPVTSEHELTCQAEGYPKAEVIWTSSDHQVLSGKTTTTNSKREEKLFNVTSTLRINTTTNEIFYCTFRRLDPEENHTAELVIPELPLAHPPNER

IC50	Structure (SMILES)
≤ 10 nM	COc1nc(-c2cccc(-c3cccc(-c4cc5cc6c(c(C#N)c5o4)CC[C@H]6N4CC[C@@H](C(=O)O)C4)c3Cl)c2C)cnc1CNC[C@@H]1CCC(=O)N1 [Compound 271]
≤ 10 nM	Cc1c(Nc2nccc3cc(CNC[C@@H]4CCC(=O)N4)cnc23)cccc1-c1cccc(-c2cc3cc4c(c(C#N)c3o2)CC[C@H]4N2CC[C@@H](C(=O)O)C2)c1Cl [Compound 274]
> 100 nM	Cc1c(Nc2nccc3cc(CN4CC[C@@H](O)C4)cnc23)cccc1-c1cccc(-c2cc3c4c(cc([N+](=O)[O-])c3o2)C(N2CC(C(=O)O)C2)CCC4)c1C (stereo partly drawn) [Compound 280]
